According to patent US10968203B2, “Pyrimidinyl-pyridyloxy-naphthyl compounds and methods of treating IRE1-related diseases and disorders” (Genentech, Inc., priority 2017, dated 2021):
Where a name gives a salt, the structure may show the parent alone.

Test system: XBP1s-luc 293 LUC
Experiment: cellular PD assay, XBP1s-LUC reporter (Example 903)
Assay type: cell-based
Conditions: Table 1; read-out: XBP1s-luc 293 LUC (IC50)
How it was run: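 A luciferase fusion, in frame and expressed only when the XBP1 transcript is spliced, served as the readout of cellular IRE1α activity in an XBP1-Luc reporter line.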

| Structure (SMILES) | IC50 [nM] |
| --- | --- |
| Cc1ccc2c(NS(=O)(=O)N(C)C)cccc2c1Oc1ncccc1-c1ccnc(N[C@H]2CCCNC2)n1 [Example 109, 4-[2-[[5-(Dimethylsulfamoylamino)-2-methyl-1-naphthyl]oxy]-3-pyridyl]-2-[[(3S)-3-piperidyl]amino]pyrimidine hydrochloride] | 222 |
| Cc1cc(NS(=O)(=O)Cc2ccccc2)c2ccccc2c1Oc1ncccc1-c1ccnc(N[C@H]2CC[C@H](N)CC2)n1 [Example 110, N-(4-((3-(2-(((1r,4r)-4-aminocyclohexyl)amino)pyrimidin-4-yl)pyridin-2-yl)oxy)-3-methylnaphthalen-1-yl)-1-phenylmethanesulfonamide hydrochloride] | 119 |
| Cc1cc(NS(=O)(=O)C2CCC2)c2ccccc2c1Oc1ncccc1-c1ccnc(N[C@H]2CC[C@H](N)CC2)n1 [Example 111, N-(4-((3-(2-(((trans)-4-Aminocyclohexyl)amino)pyrimidin-4-yl)pyridin-2-yl)oxy)-3-methylnaphthalen-1-yl)cyclobutanesulfonamide hydrochloride] | 447 |
| Cc1ccc2c(NS(=O)(=O)Cc3ccccc3)cccc2c1Oc1ncccc1-c1ccnc(N[C@H]2CCCNC2)n1 [Example 112, (S)—N-(6-Methyl-5-((3-(2-(piperidin-3-ylamino)pyrimidin-4-yl)pyridin-2-yl)oxy)naphthalen-1-yl)-1-phenylmethanesulfonamide hydrochloride] | 21 |
| CCN(C)S(=O)(=O)Nc1cccc2c(Oc3ncccc3-c3ccnc(N[C@H]4CCCNC4)n3)c(C)ccc12 [Example 113, 4-[2-[[5-[[Ethyl(methyl)sulfamoyl]amino]-2-methyl-1-naphthyl]oxy]-3-pyridyl]-2-[[(3S)-3-piperidyl]amino]pyrimidine hydrochloride] | 343 |
| Cc1ccc2c(NS(=O)(=O)N3CCCCC3)cccc2c1Oc1ncccc1-c1ccnc(N[C@H]2CCCNC2)n1 [Example 114, (S)—N-(6-Methyl-5-((3-(2-(piperidin-3-ylamino)pyrimidin-4-yl)pyridin-2-yl)oxy)naphthalen-1-yl)piperidine-1-sulfonamide hydrochloride] | 382 |
| Cc1ccc2c(NC(=O)c3ccccc3)cccc2c1Oc1ncccc1-c1ccnc(N[C@H]2CCCNC2)n1 [Example 115, (S)—N-(6-Methyl-5-((3-(2-(piperidin-3-ylamino)pyrimidin-4-yl)pyridin-2-yl)oxy)naphthalen-1-yl)benzamide hydrochloride] | 262 |
| Cc1ccc2c(NC(=O)N3CCCCC3)cccc2c1Oc1ncccc1-c1ccnc(N[C@H]2CCCNC2)n1 [Example 116, (S)—N-(6-Methyl-5-((3-(2-(piperidin-3-ylamino)pyrimidin-4-yl)pyridin-2-yl)oxy)naphthalen-1-yl)piperidine-1-carboxamide hydrochloride] | 430 |
| CCCC(=O)Nc1cccc2c(Oc3ncccc3-c3ccnc(N[C@H]4CCCNC4)n3)c(C)ccc12 [Example 117, (S)—N-(6-Methyl-5-((3-(2-(piperidin-3-ylamino)pyrimidin-4-yl)pyridin-2-yl)oxy)naphthalen-1-yl)butyramide hydrochloride] | 145 |
| Cc1ccc2c(NS(=O)(=O)CCCF)cccc2c1Oc1ncccc1-c1ccnc(N[C@H]2CCCNC2)n1 [Example 118, (S)-3-Fluoro-N-(6-methyl-5-((3-(2-(piperidin-3-ylamino)pyrimidin-4-yl)pyridin-2-yl)oxy)naphthalen-1-yl)propane-1-sulfonamide hydrochloride] | 323 |
| Cc1cc(NS(=O)(=O)C2CCCC2)c2ccccc2c1Oc1ncccc1-c1ccnc(N[C@H]2CC[C@H](N)CC2)n1 [Example 119, N-(4-((3-(2-(((trans)-4-aminocyclohexyl)amino)pyrimidin-4-yl)pyridin-2-yl)oxy)-3-methylnaphthalen-1-yl)cyclopentanesulfonamide hydrochloride] | 312 |
| Cc1ccc2c(NS(=O)(=O)C3CCCC3)cccc2c1Oc1ncccc1-c1ccnc(N[C@H]2CCCNC2)n1 [Example 120, (S)—N-(6-Methyl-5-((3-(2-(piperidin-3-ylamino)pyrimidin-4-yl)pyridin-2-yl)oxy)naphthalen-1-yl)cyclopentanesulfonamide hydrochloride] | 180 |
| Cc1ccc2c(NS(=O)(=O)CC(C)C)cccc2c1Oc1ncccc1-c1ccnc(N[C@H]2CCCNC2)n1 [Example 121, (S)-2-Methyl-N-(6-methyl-5-((3-(2-(piperidin-3-ylamino)pyrimidin-4-yl)pyridin-2-yl)oxy)naphthalen-1-yl)propane-1-sulfonamide hydrochloride] | 103 |
| Cc1ccc2c(NS(=O)(=O)CC(F)(F)F)cccc2c1Oc1ncccc1-c1ccnc(N[C@H]2CCCNC2)n1 [Example 122, (S)-2,2,2-Trifluoro-N-(6-methyl-5-((3-(2-(piperidin-3-ylamino)pyrimidin-4-yl)pyridin-2-yl)oxy)naphthalen-1-yl)ethane-1-sulfonamide hydrochloride] | 105 |
| Cc1ccc2c(NS(=O)(=O)CCC(F)(F)F)cccc2c1Oc1ncccc1-c1ccnc(N[C@H]2CCCNC2)n1 [Example 123, (S)-3,3,3-Trifluoro-N-(6-methyl-5-((3-(2-(piperidin-3-ylamino)pyrimidin-4-yl)pyridin-2-yl)oxy)naphthalen-1-yl)propane-1-sulfonamide hydrochloride] | 84 |
| Cc1ccc2c(NS(=O)(=O)CC3CC3)cccc2c1Oc1ncccc1-c1ccnc(N[C@H]2CCCNC2)n1 [Example 124, (S)-1-Cyclopropyl-N-(6-methyl-5-((3-(2-(piperidin-3-ylamino)pyrimidin-4-yl)pyridin-2-yl)oxy)naphthalen-1-yl)methanesulfonamide hydrochloride] | 105 |
| Cc1ccc2c(NS(=O)(=O)Cc3cccnc3)cccc2c1Oc1ncccc1-c1ccnc(N[C@H]2CCCNC2)n1 [Example 125, (S)—N-(6-Methyl-5-((3-(2-(piperidin-3-ylamino)pyrimidin-4-yl)pyridin-2-yl)oxy)naphthalen-1-yl)-1-(pyridin-3-yl)methanesulfonamide hydrochloride] | 318 |
| Cc1ccc2c(NS(=O)(=O)Cc3ccccn3)cccc2c1Oc1ncccc1-c1ccnc(N[C@H]2CCCNC2)n1 [Example 126, (S)—N-(6-Methyl-5-((3-(2-(piperidin-3-ylamino)pyrimidin-4-yl)pyridin-2-yl)oxy)naphthalen-1-yl)-1-(pyridin-2-yl)methanesulfonamide hydrochloride] | 54 |
| Cc1ccc2c(NS(=O)(=O)CC3CCC3)cccc2c1Oc1ncccc1-c1ccnc(N[C@H]2CCCNC2)n1 [Example 127, (S)-1-Cyclobutyl-N-(6-methyl-5-((3-(2-(piperidin-3-ylamino)pyrimidin-4-yl)pyridin-2-yl)oxy)naphthalen-1-yl)methanesulfonamide] | 233 |
| Cc1ccc2c(NS(=O)(=O)CC3CCCC3)cccc2c1Oc1ncccc1-c1ccnc(N[C@H]2CCCNC2)n1 [Example 128, (S)-1-Cyclopentyl-N-(6-methyl-5-((3-(2-(piperidin-3-ylamino)pyrimidin-4-yl)pyridin-2-yl)oxy)naphthalen-1-yl)methanesulfonamide] | 317 |
| Cc1ccc2c(NS(=O)(=O)CCC3CC3)cccc2c1Oc1ncccc1-c1ccnc(N[C@H]2CCCNC2)n1 [Example 129, (S)-2-Cyclopropyl-N-(6-methyl-5-((3-(2-(piperidin-3-ylamino)pyrimidin-4-yl)pyridin-2-yl)oxy)naphthalen-1-yl)ethanesulfonamide] | 301 |
| Cc1ccc2c(NC(=O)CC3CCCCC3)cccc2c1Oc1ncccc1-c1ccnc(N[C@H]2CCCNC2)n1 [Example 130, (S)-2-Cyclohexyl-N-(6-methyl-5-((3-(2-(piperidin-3-ylamino)pyrimidin-4-yl)pyridin-2-yl)oxy)naphthalen-1-yl)acetamide] | 228 |
| Cc1ccc2c(NC(=O)C3CCC3)cccc2c1Oc1ncccc1-c1ccnc(N[C@H]2CCCNC2)n1 [Example 131, (S)—N-(6-Methyl-5-((3-(2-(piperidin-3-ylamino)pyrimidin-4-yl)pyridin-2-yl)oxy)naphthalen-1-yl)cyclobutanecarboxamide] | 153 |
| COCCCS(=O)(=O)Nc1cccc2c(Oc3ncccc3-c3ccnc(N[C@H]4CCCNC4)n3)c(C)ccc12 [Example 132, (S)-3-Methoxy-N-(6-methyl-5-((3-(2-(piperidin-3-ylamino)pyrimidin-4-yl)pyridin-2-yl)oxy)naphthalen-1-yl)propane-1-sulfonamide hydrochloride] | 365 |
| Cc1ccc2c(NS(=O)(=O)CC3CCOCC3)cccc2c1Oc1ncccc1-c1ccnc(N[C@H]2CCCNC2)n1 [Example 133, (S)—N-(6-Methyl-5-((3-(2-(piperidin-3-ylamino)pyrimidin-4-yl)pyridin-2-yl)oxy)naphthalen-1-yl)-1-(tetrahydro-2H-pyran-4-yl)methanesulfonamide hydrochloride] | 158 |
| Cc1ccc2c(NS(=O)(=O)Cc3ccccc3Cl)cccc2c1Oc1ncccc1-c1ccnc(N[C@H]2CCCNC2)n1 [Example 135, (S)-1-(2-Chlorophenyl)-N-(6-methyl-5-((3-(2-(piperidin-3-ylamino)pyrimidin-4-yl)pyridin-2-yl)oxy)naphthalen-1-yl)methanesulfonamide] | 10 |
| CCCCS(=O)(=O)Nc1cccc2c(Oc3ncccc3-c3ccnc(N[C@H]4CCCNC4)n3)c(C)ccc12 [Example 136, (S)—N-(6-Methyl-5-((3-(2-(piperidin-3-ylamino)pyrimidin-4-yl)pyridin-2-yl)oxy)naphthalen-1-yl) butane-1-sulfonamide] | 297 |
| COCCS(=O)(=O)Nc1cccc2c(Oc3ncccc3-c3ccnc(N[C@H]4CCCNC4)n3)c(C)ccc12 [Example 137, (S)-2-Methoxy-N-(6-methyl-5-((3-(2-(piperidin-3-ylamino)pyrimidin-4-yl)pyridin-2-yl)oxy)naphthalen-1-yl)ethanesulfonamide] | 477 |
| COC(C)CS(=O)(=O)Nc1cccc2c(Oc3ncccc3-c3ccnc(N[C@H]4CCCNC4)n3)c(C)ccc12 (stereo partly drawn) [Example 138, 2-Methoxy-N-(6-methyl-5-((3-(2-((S)-piperidin-3-ylamino)pyrimidin-4-yl)pyridin-2-yl)oxy)naphthalen-1-yl)propane-1-sulfonamide] | 388 |
